The values below come from patent US20190100534A1, “Cephem Compounds with Latent Reactive Groups” (Gladius Pharmaceuticals, Inc., priority 2017, published 2019).

What all share (assay type): cell-based
Assay [1] relates to Pseudomonas aeruginosa PA (RR-2). Put plainly: MIC determination. Conditions: Pseudomonas aeruginosa; PA (RR-2); CAMH broth, 20 μM Apo-Transferrin, 37° C., 18 hours; read-out: Minimum Inhibitory Concentrations, PA (RR-2). As for the experimental part:
(§1) Sterile technique was used throughout these experiments. Suspensions of organisms were removed from storage (−80° C.) and partially thawed. Partially thawed organisms (1 μL) were inoculated into 3 mL sterile LB Broth in a sterile culture tube and capped, then cultured at 37° C. with shaking for 4-5 hours until the optical density at 600 nm (OD600) was greater than 0.1 on a single beam spectrophotometer.
(§2) The concentration of organisms was adjusted to 0.08-0.1 OD600 (0.5 McFarland units) by dilution with sterile cation-adjusted Meuller-Hinton (CAMH) broth. The suspensions were used within 30 minutes of preparation.
(§3) A stock solution was made of each test compound by measuring 6.4 mg of the compound on an analytical balance and dissolving it in DMSO (1 mL) to get a transparent solution. The solutions were stored at −20° C. and thawed prior to use.
(§4) Sterile CAMH broth (200 μL) containing 20 μM Apo-Transferrin was pipetted into the first row of 8 columns of a sterile, round-bottomed, transparent, 96-well microplate using an 8-channel pipette equipped with sterile tips. One hundred μL was pipetted into the wells of the remaining 11 rows.
(§5) With an 8-channel pipette equipped with sterile tips, 100 μL of the first row solution was transferred to the second row and mixed. The process was repeated for the second to third rows and continued through row 11. One hundred μL from row 11 was removed and discarded so that all 12 rows contained 100 μL. Row 12 contained no compound and rows 1-11 contained 64, 32, 16, 8, 4, 2, 1, 0.5, 0.25, 0.125, […] of a given compound.
(§6) Inoculant suspensions (0.5 μL) were added to the 12 wells of each column. The plates were then covered and incubated at 37° C. overnight for 18 hours.
(§7) For each organism the MIC was determined by identifying the transparent well with the lowest test compound concentration.

Assay [2] has as its system Pseudomonas aeruginosa PA-RR-(98023895). As to the kind of experiment: MIC determination. The note with it: Pseudomonas aeruginosa; PA-RR-(98023895); CAMH broth, 20 μM Apo-Transferrin, 37° C., 18 hours; read-out: Minimum Inhibitory Concentrations, PA-RR-(98023895). On the procedure: as §1, §2, §3, §4, §5, §6, §7
The subject of assay [3] is Pseudomonas aeruginosa PA-RR-(G7304100). Put plainly: MIC determination. Conditions: Pseudomonas aeruginosa; PA-RR-(G7304100); CAMH broth, 20 μM Apo-Transferrin, 37° C., 18 hours; read-out: Minimum Inhibitory Concentrations, PA-RR-(G7304100). As for the experimental part:
as §1, §2, §3, §4, §5, §6, §7

Assay [4] relates to Pseudomonas aeruginosa PA-RR-(purple Fre D). Put plainly: MIC determination. The note with it: Pseudomonas aeruginosa, CAMH broth, 20 μM Apo-Transferrin, 37° C., 18 hours, read-out: Minimum Inhibitory Concentrations, PA-RR-(purple Fre D). On the procedure: as §1, §2, §3, §4, §5, §6, §7
The test system of assay [5] is Pseudomonas aeruginosa PA (URMC-3). Put plainly: MIC determination. Conditions: Pseudomonas aeruginosa; PA (URMC-3); CAMH broth, 20 μM Apo-Transferrin, 37° C., 18 hours; read-out: Minimum Inhibitory Concentrations, PA (URMC-3). As for the experimental part: as §1, §2, §3, §4, §5, §6, §7
Assay [6] concerns Pseudomonas aeruginosa PA-RR-(G7305586). Put plainly: MIC determination. Conditions: Pseudomonas aeruginosa; PA-RR-(G7305586); CAMH broth, 20 μM Apo-Transferrin, 37° C., 18 hours; read-out: Minimum Inhibitory Concentrations, PA-RR-(G7305586). On the procedure:
as §1, §2, §3, §4, §5, §6, §7

Assay [7] concerns Pseudomonas aeruginosa PA (URMC-2). As to the kind of experiment: MIC determination. The note with it: Pseudomonas aeruginosa; PA (URMC-2); CAMH broth, 20 μM Apo-Transferrin, 37° C., 18 hours; read-out: Minimum Inhibitory Concentrations, PA (URMC-2). As for the experimental part:
as §1, §2, §3, §4, §5, §6, §7

Assay [8] relates to Pseudomonas aeruginosa PA-RR-(G7294437). As to the kind of experiment: MIC determination. Conditions: Pseudomonas aeruginosa; PA-RR-(G7294437); CAMH broth, 20 μM Apo-Transferrin, 37° C., 18 hours; read-out: Minimum Inhibitory Concentrations, PA-RR-(G7294437). On the procedure:
as §1, §2, §3, §4, §5, §6, §7

In assay [9] the test system is Isogenic E. coli J58 strain carrying NDM-1. Put plainly: MIC determination, isogenic E. coli strains. The note with it: Escherichia coli, 18 h, read-out: Mimimum Inhibitory Concentrations, NDM-1. In short, it runs like this: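 Broth microdilution was run in cation-adjusted Mueller-Hinton broth supplemented with 20 μM apo-transferrin, using a 64 μg/mL top concentration diluted twofold. The inoculum was NDM-1-expressing E. coli J53 (pBC-SK(+) plasmid) at 0.5 McFarland. After overnight incubation (18 h, 37° C), the lowest compound concentration preventing visible growth was recorded as the MIC.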

The subject of assay [10] is Isogenic E. coli J58 strain carrying DHA-1. As to the kind of experiment: MIC determination, isogenic E. coli strains. Conditions: Escherichia coli, 18 h, read-out: Mimimum Inhibitory Concentrations, DHA-1. In short, it runs like this:
(§8)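 MIC read as the lowest compound level giving a transparent well after 18 h at 37° C. Strains: parent E. coli J53 and isogenic transformants expressing plasmid-borne (pBC-SK(+)) beta-lactamases such as DHA-1; inoculum 0.5 McFarland; CAMH broth plus 20 μM apo-transferrin; compound 64 μg/mL downward, 2-fold dilutions.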

Assay [11] relates to E. coli J53 Alone. Put plainly: MIC determination, isogenic E. coli strains. The note with it: for MIC: Escherichia coli, J53ALONE, 18 h, read-out: Mimimum Inhibitory Concentrations, J53 Alone; for Mimimum Inhibitory Concentrations, J53 Alone: Table 4-2, CAMH broth, 20 μM Apo-Transferrin, 37° C., 18 hours. In short, it runs like this: as §8
Assay [12] relates to Isogenic E. coli J58 strain carrying VIM-2. Put plainly: MIC determination, isogenic E. coli strains. Conditions: for MIC: Escherichia coli, 18 h, read-out: Mimimum Inhibitory Concentrations, VIM-2. The essentials:
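Broth microdilution in cation-adjusted Mueller-Hinton with 20 μM apo-transferrin, compound serially halved from 64 μg/mL, read by eye after 18 h at 37 °C as lowest clear well. Inoculum: VIM-2-expressing E. coli J53 (pBC-SK(+) plasmid), adjusted to 0.5 McFarland.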

Assay [13] concerns Isogenic E. coli J58 strain carrying KPC-2. As to the kind of experiment: MIC determination, isogenic E. coli strains. Conditions: Escherichia coli, 18 h, read-out: Mimimum Inhibitory Concentrations, KPC-2. In short, it runs like this: (§9)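 Strain: E. coli J53 electroporated with a pBC-SK(+) plasmid encoding the KPC enzyme, selected on ampicillin. Twofold dilutions ([…]) were made in CAMH broth containing 20 μM apo-transferrin and inoculated at 0.5 McFarland. After overnight (18 h) growth at 37 °C, MIC was read as the lowest concentration with no visible growth.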

Assay [14] deals with Isogenic E. coli J58 strain carrying KPC-3. As to the kind of experiment: MIC determination, isogenic E. coli strains. The note with it: Escherichia coli, 18 h, read-out: Mimimum Inhibitory Concentrations, KPC-3. In short, it runs like this: as §9
The test system of assay [15] is Isogenic E. coli J58 strain carrying TEM-26. Put plainly: MIC determination, isogenic E. coli strains. The note with it: Escherichia coli, 18 h, read-out: Mimimum Inhibitory Concentrations, TEM-26. The essentials: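 E. coli J53 carried a pBC-SK(+) plasmid expressing TEM-26 β-lactamase. Compounds were serially halved from […] in CAMH broth containing 20 μM apo-transferrin, inoculated from a 0.5 McFarland culture and held overnight (18 h, 37° C); MIC read as the lowest concentration without visible growth.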

Assay [16] relates to Isogenic E. coli J58 strain carrying CTX-M-15. Put plainly: MIC determination, isogenic E. coli strains. The note with it: Escherichia coli, 18 h, read-out: Mimimum Inhibitory Concentrations, CTX-M-15. The essentials:
(§10)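 Isogenic E. coli J53 carrying plasmid-encoded CTX-M-14 or CTX-M-15 (ampicillin-selected), standardized to 0.08-0.1 OD600, incubated overnight (18 h, 37° C.) in CAMH broth plus 20 μM apo-transferrin over 2-fold compound dilutions starting at 64 μg/mL. Lowest concentration with no visible growth recorded as MIC.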

Assay [17] relates to Isogenic E. coli J58 strain carrying CTX-M-14. As to the kind of experiment: MIC determination, isogenic E. coli strains. The note with it: Escherichia coli, 18 h, read-out: Mimimum Inhibitory Concentrations, CTX-M-14. In short, it runs like this: as §10

The structures appear in SMILES notation.

Regarding `CC(C)(O/N=C(\C(=O)N[C@@H]1C(=O)N2C(C(=O)O)=C(C=Cc3ccc(C[N+]4(C)CCc5c(Cl)c(O)c(O)c(Cl)c5C4)cc3)CS[C@H]12)c1csc(N)n1)C(=O)O` (mixture of isomers) [Compound 429, 2-(4-((E/Z)-2-((6R,7R)-7-((Z)-2-(2-aminothiazol-4-yl)-2-(((2-carboxypropan-2-yl)oxy)imino)acetamido)-2-carboxy-8-oxo-5-thia-1-azabicyclo[4.2.0]oct-2-en-3-yl)vinyl)benzyl)-5,8 dichloro-6,7-dihydroxy-2-methyl-1,2,3,4-tetrahydroisoquinolin-2-ium], the MIC is at most 0.06 µg/mL in assay [1]; 4 µg/mL in [2]; at most 0.06 µg/mL in assay [3]; 2 µg/mL in [4]; 0.5 µg/mL in [5]; 1 µg/mL in [6]. For the same compound, the MIC in [7] is 0.5 µg/mL; in assay [8], at most 0.06 µg/mL; in assay [9], above 64 µg/mL; in assay [10], 0.25 µg/mL; in assay [11], at most 0.06 µg/mL; in assay [12] it was at most 0.06 µg/mL. Also, the figures for the MIC in assay [13] and in assay [14] were 4 µg/mL and 1 µg/mL, respectively. In addition, the “Mimimum Inhibitory Concentrations, J53 Alone” value in assay [11] was at most 0.06 microgram/mL. Moreover, in [12] (review of Tables 4-1 and 4-2), the “MICs for an E. coli strain carrying the gene for carbapenemase VIM-1, in words” value was “low microgram/mL MICs”.

Consider `CC(C)(O/N=C(\C(=O)N[C@@H]1C(=O)N2C(C(=O)O)=C(C=Cc3ccc(C[N+]4(C)CCc5ccc(O)c(O)c5C4)cc3)CS[C@H]12)c1csc(N)n1)C(=O)O` (mixture of isomers) [Compound 442, 2-(4-((E/Z)-2-((6R,7R)-7-((Z)-2-(2-aminothiazol-4-yl)-2-(((2-carboxypropan-2-yl)oxy)imino)acetamido)-2-carboxy-8-oxo-5-thia-1-azabicyclo[4.2.0]oct-2-en-3 yl)vinyl)benzyl)-7,8-dihydroxy-2-methyl-1,2,3,4-tetrahydroisoquinolin-2-ium], for which the MIC in assay [1] was at most 0.06 µg/mL; in assay [2], 8 µg/mL; in assay [3] it was at most 0.06 µg/mL; in [4], 1 µg/mL; in assay [5], 0.5 µg/mL; in assay [6], 2 µg/mL. Also, the MIC in [7] is 0.25 µg/mL; in assay [8], at most 0.06 µg/mL; in assay [9] it was above 64 µg/mL; in assay [11] it was 0.25 µg/mL; in [15], 0.5 µg/mL; in assay [13], 2 µg/mL. Also, the MIC in [14] was found to be 1 µg/mL. In [11], the “Mimimum Inhibitory Concentrations, J53 Alone” value stood at 0.25 microgram/mL.

With `CC(C)(O/N=C(\C(=O)N[C@@H]1C(=O)N2C(C(=O)O)=C(C=Cc3ccc(C[N+]4(C)CCc5cc(O)c(O)cc5C4)cc3)CS[C@H]12)c1csc(N)n1)C(=O)O` (mixture of isomers) [Compound 407, 2-(4-((E/Z)-2-((6R,7R)-7-((Z)-2-(2-aminothiazol-4-yl)-2-(((2-carboxypropan-2-yl)oxy)imino)acetamido)-2-carboxy-8-oxo-5-thia-1-azabicyclo[4.2.0]oct-2-en-3 yl)vinyl)benzyl)-6,7-dihydroxy-2-methyl-1,2,3,4-tetrahydroisoquinolin-2-ium], the MIC stood at 2 µg/mL in assay [1]; 0.13 µg/mL in assay [2]; 0.03 µg/mL in [3]; 0.06 µg/mL in assay [4]; 0.25 µg/mL in [5]; 0.03 µg/mL in [6]. Moreover, the MIC in assay [7] was 4 µg/mL; in [8], 0.03 µg/mL; in assay [16], 64 µg/mL; in assay [17], 1 µg/mL; in assay [9], above 64 µg/mL; in assay [11], 0.13 µg/mL. In addition, the MIC in assay [15] is 1 µg/mL; in assay [12], 0.5 µg/mL; in assay [13] it was 8 µg/mL; in [14], 4 µg/mL. Also, in assay [11], the “Mimimum Inhibitory Concentrations, J53 Alone” value is reported as 0.13 microgram/mL.
